Laboratory results as given in patent publication US20240109917A1 (ACTELION PHARMACEUTICALS LTD, priority 2020, published 2024).
Where two headings read alike, the source gives them in different places.

Tests used:
PDGFRβ = PDGFRβ (Rattus norvegicus (Rat), UniProt Q05030); assay: PDGFRβ Cellular Assay (PDGFRb P-Y751 HTRF in A10 cells stimulated with PDGF-BB); format: cell-based
In short: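 Phospho-Y751 PDGFRβ was measured by HTRF in lysates of A10 rat cells. Cells received compound for 3 hours before PDGF-BB stimulation (100 ng/mL working stock).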

VEGFR2, unphosphorylated = VEGFR2, unphosphorylated (Homo sapiens (Human), UniProt P35968); assay: VEGFR ADP GLO Assay; format: biochemical
VEGFR2, unphosphorylated, sequence (P35968 20-1356): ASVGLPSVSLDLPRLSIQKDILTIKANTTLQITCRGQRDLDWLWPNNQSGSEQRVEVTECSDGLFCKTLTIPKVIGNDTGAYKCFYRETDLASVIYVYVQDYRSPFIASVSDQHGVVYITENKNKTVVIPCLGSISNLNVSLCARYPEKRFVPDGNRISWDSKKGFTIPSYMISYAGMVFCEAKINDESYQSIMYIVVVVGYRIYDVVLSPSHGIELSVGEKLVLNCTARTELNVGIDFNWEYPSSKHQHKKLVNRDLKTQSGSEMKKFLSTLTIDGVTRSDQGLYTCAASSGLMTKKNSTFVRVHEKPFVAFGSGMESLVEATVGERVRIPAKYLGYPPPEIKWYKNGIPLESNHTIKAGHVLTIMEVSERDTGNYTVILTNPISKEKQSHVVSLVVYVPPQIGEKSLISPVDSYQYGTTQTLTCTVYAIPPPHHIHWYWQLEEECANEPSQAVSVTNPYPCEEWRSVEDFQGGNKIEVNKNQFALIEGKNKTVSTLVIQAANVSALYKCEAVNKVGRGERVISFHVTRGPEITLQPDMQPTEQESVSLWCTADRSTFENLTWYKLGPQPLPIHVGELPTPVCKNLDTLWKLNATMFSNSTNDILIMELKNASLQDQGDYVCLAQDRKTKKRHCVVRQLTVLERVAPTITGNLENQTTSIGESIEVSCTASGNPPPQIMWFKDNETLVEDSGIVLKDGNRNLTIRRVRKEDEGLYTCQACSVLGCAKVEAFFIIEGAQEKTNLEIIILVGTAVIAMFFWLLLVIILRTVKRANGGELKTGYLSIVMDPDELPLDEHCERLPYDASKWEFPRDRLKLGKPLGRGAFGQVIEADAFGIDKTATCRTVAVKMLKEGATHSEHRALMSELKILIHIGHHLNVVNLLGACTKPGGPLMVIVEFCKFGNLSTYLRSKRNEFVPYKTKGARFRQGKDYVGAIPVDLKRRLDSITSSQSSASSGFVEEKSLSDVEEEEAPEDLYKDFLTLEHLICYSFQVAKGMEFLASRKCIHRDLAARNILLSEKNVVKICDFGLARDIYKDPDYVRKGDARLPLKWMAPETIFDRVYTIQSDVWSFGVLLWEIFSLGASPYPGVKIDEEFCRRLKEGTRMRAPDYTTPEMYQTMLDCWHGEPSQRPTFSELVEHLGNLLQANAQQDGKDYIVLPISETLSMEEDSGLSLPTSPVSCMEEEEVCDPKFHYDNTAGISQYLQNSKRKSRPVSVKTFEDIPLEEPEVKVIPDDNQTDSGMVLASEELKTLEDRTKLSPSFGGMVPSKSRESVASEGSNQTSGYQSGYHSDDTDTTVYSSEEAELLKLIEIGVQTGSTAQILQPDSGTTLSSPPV

PDGFRβ, sequence (Q05030 32-1097): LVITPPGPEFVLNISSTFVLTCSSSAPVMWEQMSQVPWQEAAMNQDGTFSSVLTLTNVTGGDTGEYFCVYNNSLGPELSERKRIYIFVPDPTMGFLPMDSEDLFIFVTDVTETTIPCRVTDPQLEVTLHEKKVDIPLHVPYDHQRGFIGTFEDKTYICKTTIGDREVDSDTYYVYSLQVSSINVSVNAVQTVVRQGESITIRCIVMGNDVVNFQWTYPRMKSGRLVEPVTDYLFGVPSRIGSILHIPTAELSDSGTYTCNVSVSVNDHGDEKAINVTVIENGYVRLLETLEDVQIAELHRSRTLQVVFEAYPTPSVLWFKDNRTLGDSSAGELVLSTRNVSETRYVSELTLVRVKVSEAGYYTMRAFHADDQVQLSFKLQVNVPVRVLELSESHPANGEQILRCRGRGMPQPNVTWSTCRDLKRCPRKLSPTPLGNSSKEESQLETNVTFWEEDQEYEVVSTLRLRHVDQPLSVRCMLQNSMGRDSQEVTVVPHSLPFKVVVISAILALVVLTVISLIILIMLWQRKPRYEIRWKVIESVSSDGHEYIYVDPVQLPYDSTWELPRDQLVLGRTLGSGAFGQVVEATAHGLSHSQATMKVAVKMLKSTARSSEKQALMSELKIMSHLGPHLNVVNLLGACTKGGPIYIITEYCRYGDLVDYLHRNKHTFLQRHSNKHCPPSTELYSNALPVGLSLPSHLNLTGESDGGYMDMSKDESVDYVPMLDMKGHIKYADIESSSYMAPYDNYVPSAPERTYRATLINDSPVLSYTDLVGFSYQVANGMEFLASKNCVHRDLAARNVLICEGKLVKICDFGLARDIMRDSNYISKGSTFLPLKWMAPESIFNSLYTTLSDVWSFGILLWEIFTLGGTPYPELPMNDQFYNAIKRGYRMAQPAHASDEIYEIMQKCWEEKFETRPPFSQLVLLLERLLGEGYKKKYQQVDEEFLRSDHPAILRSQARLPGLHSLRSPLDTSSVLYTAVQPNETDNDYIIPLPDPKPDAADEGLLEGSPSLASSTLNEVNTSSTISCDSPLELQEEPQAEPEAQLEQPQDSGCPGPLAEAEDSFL

Structure (SMILES)	IC50 (PDGFRβ; read-out: PDGFR Cellular IC50)	IC50 (VEGFR2, unphosphorylated)	IC50 (PDGFRβ; PDGFR Cellular IC50)
Cc1ncc(NC(=O)CN2CCCCC2)cc1NC(=O)c1cnn2cc(-c3cnn4c3OCCC4)sc12 [Example 419, 2-(6,7-dihydro-5H-pyrazolo[5,1-b][1,3]oxazin-3-yl)-N-(2-methyl-5-(2-(piperidin-1-yl)acetamido)pyridin-3-yl)pyrazolo[5,1-b]thiazole-7-carboxamide]	2.6 nM	> 7500 nM	
COCCn1cc(-c2cn3ncc(C(=O)Nc4cc(NC(=O)CCC5CCCN5C)cnc4C)c3s2)cn1 (centres unmarked) [Example 462, 2-(1-(2-methoxyethyl)-1H-pyrazol-4-yl)-N-(2-methyl-5-(3-(1-methylpyrrolidin-2-yl)propanamido)pyridin-3-yl)pyrazolo[5,1-b]thiazole-7-carboxamide]	298 nM	> 7500 nM	
Cc1ncc(NC(=O)CN2CCC[C@@H]2C)cc1NC(=O)c1cnn2cc(-c3cnn4c3COCC4)sc12 [Example 473, (S)-2-(6,7-dihydro-4H-pyrazolo[5,1-c][1,4]oxazin-3-yl)-N-(2-methyl-5-(2-(2-methylpyrrolidin-1-yl)acetamido)pyridin-3-yl)pyrazolo[5,1-b]thiazole-7-carboxamide]	5.3 nM	> 7500 nM	
Cc1ncc(NC(=O)CN2CC(C)(C)C2)cc1NC(=O)c1cnn2cc(-c3ccnnc3C)sc12 [Example 410, N-(5-(2-(3,3-dimethylazetidin-1-yl)acetamido)-2-methylpyridin-3-yl)-2-(3-methylpyridazin-4-yl)pyrazolo[5,1-b]thiazole-7-carboxamide]		> 7500 nM	270 nM
Cc1ncc(NC(=O)CN2CC3(CCCCO3)C2)cc1NC(=O)c1cnn2cc(-c3cnn4c3OCCC4)sc12 [Example 423, N-(5-(2-(5-oxa-2-azaspiro[3.5]nonan-2-yl)acetamido)-2-methylpyridin-3-yl)-2-(6,7-dihydro-5H-pyrazolo[5,1-b][1,3]oxazin-3-yl)pyrazolo[5,1-b]thiazole-7-carboxamide]	15.8 nM	> 7500 nM	
Cc1ncc(NC(=O)CNC2CCCC2)cc1NC(=O)c1cnn2cc(-c3cnn4c3CCC4)sc12 [Example 422, N-(5-(2-(cyclopentylamino)acetamido)-2-methylpyridin-3-yl)-2-(5,6-dihydro-4H-pyrrolo[1,2-b]pyrazol-3-yl)pyrazolo[5,1-b]thiazole-7-carboxamide]	2.6 nM	> 7500 nM	
Cc1ncc(NC(=O)CN2CC(C)(C)C2)cc1NC(=O)c1cnn2cc(-c3c(C)nn(C4COC4)c3C)sc12 [Example 425, 2-(3,5-dimethyl-1-(oxetan-3-yl)-1H-pyrazol-4-yl)-N-(5-(2-(3,3-dimethylazetidin-1-yl)acetamido)-2-methylpyridin-3-yl)pyrazolo[5,1-b]thiazole-7-carboxamide]		> 7500 nM	11.7 nM
Cc1ncc(NC(=O)CN2CC(C)(C)C2)cc1NC(=O)c1cnn2cc(-c3cn(C)nc3C)sc12 [Example 430, 2-(1,3-Dimethyl-1H-pyrazol-4-yl)-N-(5-(2-(3,3-dimethylazetidin-1-yl)acetamido)-2-methylpyridin-3-yl)pyrazolo[5,1-b]thiazole-7-carboxamide]	1 nM	5170 nM	
Cc1ncc(NC(=O)CN2CCC(C)C2)cc1NC(=O)c1cnn2cc(-c3cn(C)nc3C)sc12 (centres unmarked) [Example 446, 2-(1,3-Dimethyl-1H-pyrazol-4-yl)-N-(2-methyl-5-(2-(3-methylpyrrolidin-1-yl)acetamido)pyridin-3-yl)pyrazolo[5,1-b]thiazole-7-carboxamide]	3 nM	> 7500 nM	
Cc1ncc(NC(=O)CN2CCC23CCC3)cc1NC(=O)c1cnn2cc(-c3cnn4c3OCCC4)sc12 [Example 408, N-(5-(2-(1-azaspiro[3.3]heptan-1-yl)acetamido)-2-methylpyridin-3-yl)-2-(6,7-dihydro-5H-pyrazolo[5,1-b][1,3]oxazin-3-yl)pyrazolo[5,1-b]thiazole-7-carboxamide]	1.7 nM	> 7500 nM	
Cc1ncc(C(=O)NCCN2CC3CCC2CC3)cc1NC(=O)c1cnn2cc(-c3cnn4c3OCCC4)sc12 [Example 477, N-(5-((2-(2-azabicyclo[2.2.2]octan-2-yl)ethyl)carbamoyl)-2-methylpyridin-3-yl)-2-(6,7-dihydro-5H-pyrazolo[5,1-b][1,3]oxazin-3-yl)pyrazolo[5,1-b]thiazole-7-carboxamide]	45.5 nM	> 7500 nM	
Cc1ncc(NC(=O)CN2CCCC2(C)C)cc1NC(=O)c1cnn2cc(-c3cnn4c3COCC4)sc12 [Example 458, 2-(6,7-dihydro-4H-pyrazolo[5,1-c][1,4]oxazin-3-yl)-N-(5-(2-(2,2-dimethylpyrrolidin-1-yl)acetamido)-2-methylpyridin-3-yl)pyrazolo[5,1-b]thiazole-7-carboxamide]	2 nM	> 7500 nM	
Cc1ncc(C(=O)NCCN2CCCC23CCC3)cc1NC(=O)c1cnn2cc(-c3cnn4c3COCC4)sc12 [Example 472, N-(5-((2-(5-azaspiro[3.4]octan-5-yl)ethyl)carbamoyl)-2-methylpyridin-3-yl)-2-(6,7-dihydro-4H-pyrazolo[5,1-c][1,4]oxazin-3-yl)pyrazolo[5,1-b]thiazole-7-carboxamide]	5.4 nM	> 7500 nM	
Cc1ncc(NC(=O)CNC2CCC2)cc1NC(=O)c1cnn2cc(-c3cnn4c3CCC4)sc12 [Example 471, N-(5-(2-(cyclobutylamino)acetamido)-2-methylpyridin-3-yl)-2-(5,6-dihydro-4H-pyrrolo[1,2-b]pyrazol-3-yl)pyrazolo[5,1-b]thiazole-7-carboxamide]	3.4 nM	> 7500 nM	
COCCn1cc(-c2cn3ncc(C(=O)Nc4cc(NC(=O)C[C@@H]5CCN(C(C)C)C5)cnc4C)c3s2)cn1 [Example 466, (S)—N-(5-(2-(1-isopropylpyrrolidin-3-yl)acetamido)-2-methylpyridin-3-yl)-2-(1-(2-methoxyethyl)-1H-pyrazol-4-yl)pyrazolo[5,1-b]thiazole-7-carboxamide]	350 nM	> 7500 nM	
COC1CN(CC(=O)Nc2cnc(C)c(NC(=O)c3cnn4cc(-c5cn(C)nc5C)sc34)c2)C1 [Example 441, 2-(1,3-Dimethyl-1H-pyrazol-4-yl)-N-(5-(2-(3-methoxyazetidin-1-yl)acetamido)-2-methylpyridin-3-yl)pyrazolo[5,1-b]thiazole-7-carboxamide]	30.5 nM	> 7500 nM	
Cc1ncc(NC(=O)CN2CCC[C@H]2C)cc1NC(=O)c1cnn2cc(-c3nn(C)nc3C)sc12 [Example 443, (R)-2-(2,5-dimethyl-2H-1,2,3-triazol-4-yl)-N-(2-methyl-5-(2-(2-methylpyrrolidin-1-yl)acetamido)pyridin-3-yl)pyrazolo[5,1-b]thiazole-7-carboxamide]	3.9 nM	> 7500 nM	
COCCn1cc(-c2cn3ncc(C(=O)Nc4cc(NC(=O)C5(CN6CCC[C@@H]6C)CC5)cnc4C)c3s2)cn1 [Example 452, (S)-2-(1-(2-methoxyethyl)-1H-pyrazol-4-yl)-N-(2-methyl-5-(1-((2-methylpyrrolidin-1-yl)methyl)cyclopropanecarboxamido)pyridin-3-yl)pyrazolo[5,1-b]thiazole-7-carboxamide]	91.6 nM	> 7500 nM	
Cc1ncc(NC(=O)CN2CC(C)(C)C2)cc1NC(=O)c1cnn2cc(-c3cnn(CCS(C)(=O)=O)c3)sc12 [Example 435, N-(5-(2-(3,3-Dimethylazetidin-1-yl)acetamido)-2-methylpyridin-3-yl)-2-(1-(2-(methylsulfonyl)ethyl)-1H-pyrazol-4-yl)pyrazolo[5,1-b]thiazole-7-carboxamide]	139 nM	> 7500 nM	
Cc1ncc(NC(=O)NCCN2CCCC2(C)C)cc1NC(=O)c1cnn2cc(-c3cnn(C)c3)sc12 [Example 38, N-(5-(3-(2-(2,2-dimethylpyrrolidin-1-yl)ethyl)ureido)-2-methyl-pyridin-3-yl)-2-(1-methyl-1H-pyrazol-4-yl)pyrazolo[5,1-b]thiazole-7-carboxamide]	3000 nM	> 7500 nM	
Cc1ncc(NC(=O)C[C@H]2CCN(C(C)C)C2)cc1NC(=O)c1cnn2cc(-c3cnn(C)c3)sc12 [Example 465, (R)—N-(5-(2-(1-isopropylpyrrolidin-3-yl)acetamido)-2-methylpyridin-3-yl)-2-(1-methyl-1H-pyrazol-4-yl)pyrazolo[5,1-b]thiazole-7-carboxamide]	1860 nM	> 7500 nM	
Cc1ncc(NC(=O)CN2C[C@@H](C)O[C@H](C)C2)cc1NC(=O)c1cnn2cc(-c3cnn(C)c3C)sc12 (relative stereo) [Example 433, 2-(1,5-Dimethyl-1H-pyrazol-4-yl)-N-(5-(2-(trans-2,6-dimethylmorpholino)acetamido)-2-methylpyridin-3-yl)pyrazolo[5,1-b]thiazole-7-carboxamide]	5.1 nM	> 7500 nM	
Cc1ncc(NC(=O)CN2CCCCCC2)cc1NC(=O)c1cnn2cc(-c3cnn4c3OCCC4)sc12 [Example 420, N-(5-(2-(azepan-1-yl)acetamido)-2-methylpyridin-3-yl)-2-(6,7-dihydro-5H-pyrazolo[5,1-b][1,3]oxazin-3-yl)pyrazolo[5,1-b]thiazole-7-carboxamide]	2.1 nM	> 7500 nM	
COC1(C)CN(CC(=O)Nc2cnc(C)c(NC(=O)c3cnn4cc(-c5cn(C)nc5C)sc34)c2)C1 [Example 442, 2-(1,3-Dimethyl-1H-pyrazol-4-yl)-N-(5-(2-(3-methoxy-3-methylazetidin-1-yl)acetamido)-2-methylpyridin-3-yl)pyrazolo[5,1-b]thiazole-7-carboxamide]	8.1 nM	> 7500 nM	
Cc1ncc(NC(=O)CN2CC(C)(C)C2)cc1NC(=O)c1cnn2cc(-c3cnc4n3CCOC4)sc12 [Example 415, 2-(5,6-dihydro-8H-imidazo[2,1-c][1,4]oxazin-3-yl)-N-(5-(2-(3,3-dimethylazetidin-1-yl)acetamido)-2-methylpyridin-3-yl)pyrazolo[5,1-b]thiazole-7-carboxamide]	41.5 nM	> 7500 nM	
